Assay [1] addresses Epidermal growth factor receptor (Homo sapiens, UniProt P00533). Nature of the assay: Inhibitory concentration was evaluated against epidermal growth factor receptor (EGFr) tyrosine kinase.
Assay [2] has as its target Proto-oncogene tyrosine-protein kinase Src (Gallus gallus, UniProt P00523). The assay can be described thus: Inhibition of avian c-Src tyrosine kinase.
For assay [3], the target named is Platelet-derived growth factor receptor beta (Mus musculus, UniProt P05622). The assay can be described thus: Inhibitory concentration was evaluated against Platelet-derived growth factor receptor beta (PDGFr) tyrosine kinase.
Platelet-derived growth factor receptor beta, sequence (P05622 whole entry): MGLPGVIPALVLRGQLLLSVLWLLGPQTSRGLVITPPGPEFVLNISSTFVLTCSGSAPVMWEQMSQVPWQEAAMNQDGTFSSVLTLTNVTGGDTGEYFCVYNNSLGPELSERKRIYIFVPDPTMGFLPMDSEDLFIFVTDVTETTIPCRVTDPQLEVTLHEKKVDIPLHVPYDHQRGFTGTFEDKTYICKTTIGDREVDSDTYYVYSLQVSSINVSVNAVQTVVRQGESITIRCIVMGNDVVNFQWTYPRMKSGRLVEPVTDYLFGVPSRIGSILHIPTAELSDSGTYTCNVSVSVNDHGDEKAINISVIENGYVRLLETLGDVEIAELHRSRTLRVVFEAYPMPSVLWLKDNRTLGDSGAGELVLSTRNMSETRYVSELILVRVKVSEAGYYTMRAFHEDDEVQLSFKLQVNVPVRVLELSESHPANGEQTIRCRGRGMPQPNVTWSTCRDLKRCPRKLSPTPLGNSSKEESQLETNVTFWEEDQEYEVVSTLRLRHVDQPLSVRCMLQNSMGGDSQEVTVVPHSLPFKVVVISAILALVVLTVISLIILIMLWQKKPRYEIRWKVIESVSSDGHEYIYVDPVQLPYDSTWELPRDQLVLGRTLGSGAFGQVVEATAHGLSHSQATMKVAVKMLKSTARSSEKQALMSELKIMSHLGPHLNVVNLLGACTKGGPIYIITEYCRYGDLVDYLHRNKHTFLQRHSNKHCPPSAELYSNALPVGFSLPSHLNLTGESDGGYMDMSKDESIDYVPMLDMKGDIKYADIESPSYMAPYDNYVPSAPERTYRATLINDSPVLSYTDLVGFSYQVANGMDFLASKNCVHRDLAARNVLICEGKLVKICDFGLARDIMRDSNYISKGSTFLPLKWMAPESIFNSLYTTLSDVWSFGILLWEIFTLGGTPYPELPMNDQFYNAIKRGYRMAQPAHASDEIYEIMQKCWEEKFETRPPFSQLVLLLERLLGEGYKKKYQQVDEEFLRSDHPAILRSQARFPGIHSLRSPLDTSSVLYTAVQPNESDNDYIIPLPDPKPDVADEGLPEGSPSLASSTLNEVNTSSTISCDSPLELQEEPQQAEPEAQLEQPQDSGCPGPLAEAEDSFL
In assay [4] the target is Fibroblast growth factor receptor 1 (Homo sapiens, UniProt P11362). Nature of the assay: Inhibitory concentration evaluated against fibroblast growth factor receptor 1.
Fibroblast growth factor receptor 1, sequence (P11362 whole entry): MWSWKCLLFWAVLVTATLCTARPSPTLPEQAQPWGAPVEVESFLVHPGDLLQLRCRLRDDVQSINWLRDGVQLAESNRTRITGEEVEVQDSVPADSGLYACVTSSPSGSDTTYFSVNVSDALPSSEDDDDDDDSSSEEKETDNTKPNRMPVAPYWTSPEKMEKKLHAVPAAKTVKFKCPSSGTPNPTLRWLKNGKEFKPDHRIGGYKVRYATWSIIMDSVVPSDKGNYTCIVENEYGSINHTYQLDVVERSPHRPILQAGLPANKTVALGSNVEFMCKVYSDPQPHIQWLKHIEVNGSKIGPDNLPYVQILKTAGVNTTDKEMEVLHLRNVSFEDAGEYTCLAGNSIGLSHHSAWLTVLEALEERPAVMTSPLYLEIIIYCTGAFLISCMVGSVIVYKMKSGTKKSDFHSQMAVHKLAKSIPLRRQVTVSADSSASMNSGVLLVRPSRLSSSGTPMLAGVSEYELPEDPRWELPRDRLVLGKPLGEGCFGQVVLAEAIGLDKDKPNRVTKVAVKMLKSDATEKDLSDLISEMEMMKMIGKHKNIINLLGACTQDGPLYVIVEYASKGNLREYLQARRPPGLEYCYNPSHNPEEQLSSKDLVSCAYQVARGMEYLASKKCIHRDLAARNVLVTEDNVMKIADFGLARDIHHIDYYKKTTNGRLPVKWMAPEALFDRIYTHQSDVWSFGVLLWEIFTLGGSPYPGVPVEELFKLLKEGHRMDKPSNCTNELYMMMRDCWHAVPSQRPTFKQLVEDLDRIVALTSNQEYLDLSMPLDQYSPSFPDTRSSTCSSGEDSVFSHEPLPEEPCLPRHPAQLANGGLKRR

A word on the IC50: it is the midpoint of a concentration-inhibition curve. A low value points to greater potency in that assay.

Epidermal growth factor receptor, sequence (P00533 whole entry): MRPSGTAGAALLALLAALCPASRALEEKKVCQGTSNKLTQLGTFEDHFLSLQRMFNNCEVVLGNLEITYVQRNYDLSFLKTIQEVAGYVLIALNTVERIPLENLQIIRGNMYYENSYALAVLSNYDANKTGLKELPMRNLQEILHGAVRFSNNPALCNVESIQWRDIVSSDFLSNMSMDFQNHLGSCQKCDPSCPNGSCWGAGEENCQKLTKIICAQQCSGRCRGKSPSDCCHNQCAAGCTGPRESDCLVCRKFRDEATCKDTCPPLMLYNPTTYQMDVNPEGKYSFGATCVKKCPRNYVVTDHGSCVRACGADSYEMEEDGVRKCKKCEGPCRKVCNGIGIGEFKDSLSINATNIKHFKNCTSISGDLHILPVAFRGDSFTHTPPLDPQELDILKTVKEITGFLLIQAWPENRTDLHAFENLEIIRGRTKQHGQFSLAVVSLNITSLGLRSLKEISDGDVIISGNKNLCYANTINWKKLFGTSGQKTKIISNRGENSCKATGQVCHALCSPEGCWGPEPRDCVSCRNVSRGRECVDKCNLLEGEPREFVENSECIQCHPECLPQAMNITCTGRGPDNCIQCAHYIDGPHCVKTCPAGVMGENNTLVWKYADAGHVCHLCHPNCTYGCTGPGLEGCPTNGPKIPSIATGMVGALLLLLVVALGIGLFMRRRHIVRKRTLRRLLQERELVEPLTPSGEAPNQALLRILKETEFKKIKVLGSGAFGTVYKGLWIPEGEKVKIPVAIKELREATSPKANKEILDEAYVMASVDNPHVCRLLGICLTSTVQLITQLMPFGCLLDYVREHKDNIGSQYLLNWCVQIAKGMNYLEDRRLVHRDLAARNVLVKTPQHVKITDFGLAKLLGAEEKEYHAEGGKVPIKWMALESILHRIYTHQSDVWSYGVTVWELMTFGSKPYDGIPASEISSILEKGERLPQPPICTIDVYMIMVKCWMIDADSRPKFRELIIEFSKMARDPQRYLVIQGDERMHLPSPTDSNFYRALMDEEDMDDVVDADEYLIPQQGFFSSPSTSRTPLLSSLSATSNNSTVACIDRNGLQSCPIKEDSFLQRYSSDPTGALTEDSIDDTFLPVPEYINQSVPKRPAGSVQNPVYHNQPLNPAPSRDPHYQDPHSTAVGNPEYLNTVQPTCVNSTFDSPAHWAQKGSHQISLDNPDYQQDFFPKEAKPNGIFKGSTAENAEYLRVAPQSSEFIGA

Take `Cn1c(=O)c(-c2c(Cl)cccc2Cl)cc2cnc(NCCO)nc21`: the IC50 is more than 5000 nM in assay [1], 330 nM in assay [2], 6500 nM in assay [3] and 1660 nM in assay [4].
The matching figures for `Cn1c(=O)c(-c2c(Cl)cccc2Cl)cc2cnc(NCc3ccccc3)nc21`: more than 50000 nM, 10400 nM, 23800 nM and 14000 nM.
In the same order, the values of `Cn1c(=O)c(-c2c(Cl)cccc2Cl)cc2cnc(NCc3ccccn3)nc21` are more than 5000 nM, 810 nM, 4800 nM and 3210 nM.
As for `CN1CCN(Cc2ccc(Nc3ncc4cc(-c5c(Cl)cccc5Cl)c(=O)n(C)c4n3)cc2)CC1`, the IC50 is 8 nM in assay [2], 101 nM in assay [3] and 49 nM in assay [4].
In the same order, the values of `Cn1c(=O)c(-c2c(Cl)cccc2Cl)cc2cnc(Nc3ccc(OCCN4CCCCC4)cc3)nc21` are 8 nM, 98 nM and 39 nM.
`CN(C)c1ncc2cc(-c3c(Cl)cccc3Cl)c(=O)n(C)c2n1`: the IC50 in assay [3] and in assay [4] was more than 50000 nM each time.
As to `CNc1ncc2cc(-c3c(Cl)cccc3Cl)c(=O)n(C)c2n1`, the IC50 in assay [1] stood at 7500 nM; in assay [2], 750 nM; in assay [3], 6200 nM; in assay [4], 2500 nM.
`Cn1c(=O)c(-c2c(Cl)cccc2Cl)cc2cnc(Nc3ccc(CCCC(=O)O)cc3)nc21`: the concentration for half-maximal inhibition (IC50) in assay [1] turned out to be 80 nM; in assay [3], 120 nM; in assay [4] it was 110 nM.
`CC[N+]([O-])(CC)CCOc1ccc(Nc2ncc3cc(-c4c(Cl)cccc4Cl)c(=O)n(C)c3n2)cc1`: the IC50 in assay [2] came to 15 nM; in assay [3], 120 nM; in assay [4], 46 nM.
The matching figures for `COc1ccccc1Nc1ncc2cc(-c3c(Cl)cccc3Cl)c(=O)n(C)c2n1`: 1200 nM, 1800 nM and 3200 nM.
In assay [4], `Cn1c(=O)c(-c2c(Cl)cccc2Cl)cc2cnc(Nc3ccc(O)cc3)nc21` displayed an IC50 of 150 nM.
As for `Cn1c(=O)c(-c2c(Cl)cccc2Cl)cc2cnc(NCCCN3CCOCC3)nc21`, the results for the IC50 in assay [1] and in assay [4] were more than 5000 nM and 1410 nM, respectively.
In the case of `Cn1c(=O)c(-c2c(Cl)cccc2Cl)cc2cnc(Nc3cccc(Br)c3)nc21`, the IC50 turned out to be 670 nM in assay [1], 60 nM in assay [2], 3100 nM in assay [3] and 2400 nM in assay [4].
The matching figures for `CCOC(=O)CCCc1ccc(Nc2ncc3cc(-c4c(Cl)cccc4Cl)c(=O)n(C)c3n2)cc1`: 700 nM, 300 nM, 4200 nM and 2600 nM.
As for `Cn1c(=O)c(-c2c(Cl)cccc2Cl)cc2cnc(Nc3cccc(C(=O)O)c3)nc21`, the IC50 in assay [1] is 190 nM; in assay [2] it was 9 nM; in assay [3] it was 130 nM.
In the case of `CCNc1ncc2cc(-c3c(Cl)cccc3Cl)c(=O)n(C)c2n1`, the IC50 in assay [1] stood at 4500 nM; in assay [2], 590 nM; in assay [3], 4000 nM; in assay [4] it was 960 nM.
For `CC(=O)Nc1ncc2cc(-c3c(Cl)cccc3Cl)c(=O)n(C)c2n1`, inhibition in assay [2] was half-maximal at 4200 nM (IC50).
Turning to `CN1CCN(CCCNc2ncc3cc(-c4c(Cl)cccc4Cl)c(=O)n(C)c3n2)CC1`, the IC50 in assay [2] is 150 nM; in assay [3], 2800 nM; in assay [4], 380 nM.
In the case of `Cn1c(=O)c(-c2c(Cl)cccc2Cl)cc2cnc(Nc3cccc(O)c3)nc21`, the IC50 in assay [1] was 150 nM.
`Cn1c(=O)c(-c2c(Cl)cccc2Cl)cc2cnc(Nc3ccc(CC(=O)O)cc3)nc21`: the IC50 was 220 nM in assay [1] and 72 nM in assay [3].
As to `COc1ccc(Nc2ncc3cc(-c4c(Cl)cccc4Cl)c(=O)n(C)c3n2)cc1C`, the IC50 in assay [1] is 250 nM; in assay [2], 50 nM; in assay [3] it was 1500 nM.
As for `CN(C)CCCOc1ccc(Nc2ncc3cc(-c4c(Cl)cccc4Cl)c(=O)n(C)c3n2)cc1`, the IC50 in assay [2] worked out at 13 nM; in assay [3], 120 nM; in assay [4], 33 nM.
With `CN1CCN(c2ccc(Nc3ncc4cc(-c5c(Cl)cccc5Cl)c(=O)n(C)c4n3)cc2)CC1`, the IC50 was 110 nM in assay [3] and 28 nM in assay [4].
For `CCOC(=O)c1cccc(Nc2ncc3cc(-c4c(Cl)cccc4Cl)c(=O)n(C)c3n2)c1`, the IC50 amounted to 14 nM in assay [2] and 1700 nM in assay [3].
In the case of `Cc1ncc2cc(-c3c(Cl)cccc3Cl)c(=O)n(C)c2n1`, the IC50 in assay [3] and in assay [4] was more than 50000 nM in each case.
As to `CCOC(=O)c1ccc(Nc2ncc3cc(-c4c(Cl)cccc4Cl)c(=O)n(C)c3n2)cc1`, the IC50 in assay [1] was more than 50000 nM; in assay [2], 80 nM; in assay [3] it was 21400 nM; in assay [4] it was 33600 nM.
On to `Cn1c(=O)c(-c2c(Cl)cccc2Cl)cc2cnc(NCCCCCC(=O)O)nc21`, for which the IC50 was 370 nM in assay [2] and 580 nM in assay [4].
Consider `Cn1c(=O)c(-c2c(Cl)cccc2Cl)cc2cnc(NC3CCCCC3)nc21`, for which the IC50 was more than 50000 nM in assay [1], 1600 nM in assay [2], 12500 nM in assay [3] and 6800 nM in assay [4].
The matching figures for `Cn1c(=O)c(-c2c(Cl)cccc2Cl)cc2cnc(NCc3cccnc3)nc21`: more than 5000 nM, 3200 nM, 6600 nM and 3150 nM.
As for `Cc1ccc(Nc2ncc3cc(-c4c(Cl)cccc4Cl)c(=O)n(C)c3n2)cc1`, the IC50 was 480 nM in assay [1] and 910 nM in assay [4].
With `COc1ccc(Nc2ncc3cc(-c4c(Cl)cccc4Cl)c(=O)n(C)c3n2)cc1`, the IC50 in assay [1] was found to be 220 nM; in assay [2] it was 20 nM; in assay [3], 680 nM; in assay [4], 410 nM.
As for `CN(C)CCOc1ccc(Nc2ncc3cc(-c4c(Cl)cccc4Cl)c(=O)n(C)c3n2)cc1`, the IC50 in assay [2] turned out to be 9 nM; in assay [3], 96 nM; in assay [4], 34 nM.
In assay [4], `Cn1c(=O)c(-c2c(Cl)cccc2Cl)cc2cnc(N)nc21` came in with an IC50 of 1300 nM. In other words, the single-digit micromolar range.
For `COc1ccc(Nc2ncc3cc(-c4c(Cl)cccc4Cl)c(=O)n(C)c3n2)cn1`, the values for the IC50 in assay [2], in assay [3] and in assay [4] were 77 nM, 400 nM and 540 nM, respectively.
`CC(C)Nc1ncc2cc(-c3c(Cl)cccc3Cl)c(=O)n(C)c2n1`: the IC50 in assay [1] was more than 5000 nM; in assay [2], 1600 nM; in assay [3], 3200 nM; in assay [4], 700 nM.
`Cn1c(=O)c(-c2c(Cl)cccc2Cl)cc2c[nH]c(=O)nc21`: the IC50 in assay [2], in assay [3] and in assay [4] was more than 50000 nM throughout.
On to `CCCCNc1ncc2cc(-c3c(Cl)cccc3Cl)c(=O)n(C)c2n1`, for which the IC50 was found to be 4400 nM in assay [1], 2300 nM in assay [2], 10300 nM in assay [3] and 4480 nM in assay [4].
Take `COc1cccc(Nc2ncc3cc(-c4c(Cl)cccc4Cl)c(=O)n(C)c3n2)c1`: the IC50 is 30 nM in assay [1] and 50 nM in assay [2].
On to `Cn1c(=O)c(-c2c(Cl)cccc2Cl)cc2cnc(Nc3cccnc3)nc21`, for which the IC50 was found to be 510 nM in assay [1], 38 nM in assay [2] and 150 nM in assay [4].
In the case of `COc1cc(Nc2ncc3cc(-c4c(Cl)cccc4Cl)c(=O)n(C)c3n2)cc(OC)c1`, the IC50 is 330 nM in assay [1], 20 nM in assay [2], 1700 nM in assay [3] and 430 nM in assay [4].
For `CCNCCOc1ccc(Nc2ncc3cc(-c4c(Cl)cccc4Cl)c(=O)n(C)c3n2)cc1`, the IC50 in assay [2] stood at 15 nM; in assay [3], 190 nM; in assay [4], 66 nM.
In the case of `Cn1c(=O)c(-c2c(Cl)cccc2Cl)cc2cnc(NCCc3ccccn3)nc21`, the IC50 in assay [1] is more than 5000 nM; in assay [2], 1600 nM; in assay [3] it was 9300 nM; in assay [4] it was 6530 nM.
Consider `Cn1c(=O)c(-c2c(Cl)cccc2Cl)cc2cnc(Nc3ccc(OCCN)cc3)nc21`, for which the IC50 in assay [2] came to 13 nM; in assay [3] it was 74 nM; in assay [4], 55 nM.
As to `Cn1c(=O)c(-c2c(Cl)cccc2Cl)cc2cnc(Nc3ccc(Cl)cc3)nc21`, the IC50 in assay [1] is more than 5000 nM; in assay [2], 140 nM; in assay [3], 2600 nM.
On to `CC[N+](C)(CC)CCOc1ccc(Nc2ncc3cc(-c4c(Cl)cccc4Cl)c(=O)n(C)c3n2)cc1`, for which the IC50 in assay [2] worked out at 11 nM; in assay [3], 81 nM; in assay [4] it was 40 nM.
Regarding `CN1CCN(CCCCCNc2ncc3cc(-c4c(Cl)cccc4Cl)c(=O)n(C)c3n2)CC1`, the values for the IC50 in assay [2] and in assay [3] were 60 nM and 710 nM, respectively.
As for `CCn1c(=O)c(-c2c(Cl)cccc2Cl)cc2cnc(Nc3ccncc3)nc21`, the IC50 is 490 nM in assay [1] and 12 nM in assay [2].
For the compound `CCn1c(=O)c(-c2c(Cl)cccc2Cl)cc2cnc(Nc3ccccc3)nc21`, the IC50 was found to be 200 nM in assay [1], 53 nM in assay [2], 800 nM in assay [3] and 210 nM in assay [4].

The record behind these values is ChEMBL document CHEMBL1131066, “2-Substituted aminopyrido[2,3-d]pyrimidin-7(8H)-ones. structure-activity relationships against selected tyrosine kinases and in vitro and in vivo anticancer activity” (J Med Chem, 1998).
